The source of these data is PMC12439760 (Bioorganic & medicinal chemistry, 2025).

As a reminder, the half-life is the time in which the quantity being followed falls by half. Low values mean fast loss, high ones slow loss. Broadly, the microsomal CLint is the capacity of the preparation to metabolise the compound, expressed as a volume cleared per time. Read a high microsomal CLint as rapid turnover. For orientation: EC50 means the concentration needed to bring the measured effect to its halfway point. Usually Ki stands for the equilibrium dissociation constant of an inhibitor or competing ligand from its target. Low values mean higher affinity, high ones lower affinity.

The subject of one series is CYP1A2. Briefly: CYP1A2 induction assay in HepaRG cells. It is filed as cell-based, human. To be noted: 10 μM, 24 hrs, % of positive control 50 μM omeprazole.
A further series is described as follows: Human liver microsome. It is filed as in vitro ADME. The settings on record: pooled human liver microsomes, pH 7.4. In general terms: Liver microsomes are a subcellular fraction often used to study metabolism.
A further series concerns CYP3A4. The series can be described thus: CYP3A4 induction assay in HepaRG cells. The settings on record: 10 μM, 24 hrs, % of positive control 10 μM rifampicin. It is filed as cell-based, human.
The subject of a further series is CYP2B6. Briefly: CYP2B6 induction assay in HepaRG cells. In kind it is cell-based, human. To be noted: 10 μM, 24 hrs, % of positive control 1 mM phenobarbital.
Series [1] has as its target T1, hCB1 receptor (Homo sapiens, UniProt P21554). Briefly: hCB1 Gαq16-coupled calcium mobilization assay in CHO-K1 cells. To be noted: hCB1 Ca EC50, CHO cells expressing hCB1 and Gαq16, calcium mobilization. It is filed as cell-based. A general note: Calcium flux is commonly read through the fluorescence of an indicator in the cells.
Series [2] is described as follows: Mouse pharmacokinetic study. It is filed as in vivo, C57BL/6 mice. The settings on record: for plasma levels: mice, 3 mg/kg po, data not shown.
For series [3], the target named is T2, hCB2 receptor (Homo sapiens, UniProt P34972). Briefly: hCB2 Gαq16-coupled calcium mobilization assay in CHO-K1 cells. In kind it is cell-based. To be noted: hCB2 Ca EC50, CHO cells expressing hCB2 and Gαq16, calcium mobilization.
T2 sequence (P34972 whole entry, canonical isoform): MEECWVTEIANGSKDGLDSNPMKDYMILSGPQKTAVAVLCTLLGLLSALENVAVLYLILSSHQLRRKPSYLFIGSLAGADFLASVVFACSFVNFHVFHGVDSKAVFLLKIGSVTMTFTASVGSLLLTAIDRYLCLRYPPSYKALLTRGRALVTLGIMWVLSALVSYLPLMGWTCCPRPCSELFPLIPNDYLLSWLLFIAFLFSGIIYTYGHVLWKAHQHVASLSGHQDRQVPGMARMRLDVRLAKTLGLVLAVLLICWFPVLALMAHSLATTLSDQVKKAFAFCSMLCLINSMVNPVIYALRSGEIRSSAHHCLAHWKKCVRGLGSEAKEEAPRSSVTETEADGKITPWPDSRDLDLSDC
For series [4], the system named is CYP3A4, CYP1A2 and CYP2B6. Briefly: Isoform-specific CYP induction assays in HepaRG cells, overall profile. It is filed as cell-based, human. The settings on record: data not shown.
Series [5] addresses T2, hCB2 receptor. Briefly: [3H]CP55940 radioligand displacement, CHO cell membranes overexpressing hCB2. It is filed as binding. For orientation: In a radioligand displacement assay an active substance lowers the binding of a labelled ligand.
In series [6] the target is T1, hCB1 receptor. Briefly: [3H]CP55940 radioligand displacement, CHO cell membranes overexpressing hCB1. It is filed as binding.

T1 sequence (P21554 whole entry): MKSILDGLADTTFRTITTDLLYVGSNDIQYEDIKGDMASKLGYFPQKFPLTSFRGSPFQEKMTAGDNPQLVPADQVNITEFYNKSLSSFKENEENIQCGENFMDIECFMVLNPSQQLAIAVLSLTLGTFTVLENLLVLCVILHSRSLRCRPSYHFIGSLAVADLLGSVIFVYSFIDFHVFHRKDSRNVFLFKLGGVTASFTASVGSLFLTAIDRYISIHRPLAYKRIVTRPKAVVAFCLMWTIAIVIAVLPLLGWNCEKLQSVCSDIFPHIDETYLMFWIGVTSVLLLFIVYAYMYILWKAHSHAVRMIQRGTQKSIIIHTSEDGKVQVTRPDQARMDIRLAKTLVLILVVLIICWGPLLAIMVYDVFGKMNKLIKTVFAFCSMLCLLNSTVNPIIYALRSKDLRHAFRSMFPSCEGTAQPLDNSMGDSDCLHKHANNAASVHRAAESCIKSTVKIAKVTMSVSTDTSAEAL

`CC(C)(NC(=O)c1nn(Cc2ccc(F)cc2)c2ccccc12)c1cccc(C(N)=O)c1` [Compound 24, N-[2-(3-Carbamoylphenyl)propan-2-yl]-1-[(4-fluorophenyl)methyl]-1H-indazole-3-carboxamide]: the “CYP1A2 Induction (% of Omeprazole)” value with CYP1A2 was under 1%. In “Human liver microsome”, this compound yielded a half-life at 1 μM of 2.05 h and a microsomal CLint at 1 μM of 5 µL/min/mg. In addition, the “CYP3A4 Induction (% of Rifampicin)” value in the series with CYP3A4 is reported as under 1%. Also, in the series with CYP2B6, the “CYP2B6 Induction (% of Phenobarbital)” value is under 1%. Moreover, the EC50 at hCB1 receptor [1] is 25 ± 5 nM. In series [2] (mouse, IP 2.5 mg/kg, at 0.25 h), the “Max. Conc. Brain” value is 1.4 ng/mL, the “Max. Conc. Liver” value stood at 650 ng/mL and the “Max. Conc. Plasma” value turned out to be 72 ng/mL.

`CC(C)(NC(=O)c1nn(Cc2ccc(F)cc2F)c2ccccc12)c1cccc(C(N)=O)c1` [Compound 45, N-[2-(3-Carbamoylphenyl)propan-2-yl]-1-[(2,4-difluorophenyl)methyl]-1H-indazole-3-carboxamide]: in the series on CYP1A2, the “CYP1A2 Induction (% of Omeprazole)” value is on record as 20%. Besides, in “Human liver microsome”, the half-life at 1 μM is over 3.33 h and the microsomal CLint at 1 μM was under 5 µL/min/mg. The “CYP3A4 Induction (% of Rifampicin)” value in the series on CYP3A4 turned out to be 66%. The “CYP2B6 Induction (% of Phenobarbital)” value with CYP2B6 stood at 6%. Moreover, the EC50 at hCB2 receptor [3] is 35 ± 6 nM. In addition, the 50% effective concentration (EC50) on hCB1 receptor [1] is 151 ± 32 nM. Further, in series [2] (mouse, PO 3 mg/kg, at 0.5 h), the “Max. Conc. Brain” value is recorded as 11 ng/mL, the “Max. Conc. Liver” value was found to be 920 ng/mL and the “Max. Conc. Plasma” value is listed as 160 ng/mL. Also, the “Plasma Half-life (HL)” value in series [2] (mouse, PO 3 mg/kg, 3 mg/kg) was 7.3 h.

Turning to `CC(C)(NC(=O)c1nn(CC2CCC(F)(F)CC2)c2ccccc12)c1cccc(C(N)=O)c1` [Compound 50, N-[2-(3-Carbamoylphenyl)propan-2-yl]-1-[(4,4-difluorocyclohexyl)methyl]-1H-indazole-3-carboxamide], in “Human liver microsome”, the half-life at 1 μM was over 3.33 h and the microsomal CLint at 1 μM was under 5 µL/min/mg. Also, the “CYP induction profile (in words)” value in series [4] is “profile similar to that of 45”. At hCB2 receptor [5], this compound showed a Ki of 3 nM. For the same compound, at hCB1 receptor [6], the Ki is 2.5 nM. This compound also returned a plasma levels in [2] of under 30 ng/mL.

In the series “Human liver microsome”, `CC(C)(NC(=O)c1nn(CC2CCOCC2)c2ccccc12)c1cccc(C(N)=O)c1` [Compound 51, N-[2-(3-Carbamoylphenyl)propan-2-yl]-1-(oxan-4-ylmethyl)-1H-indazole-3-carboxamide] had a half-life at 1 μM of 3.13 h and an intrinsic clearance (microsomal CLint) at 1 μM of 3.3 µL/min/mg. Further, the “CYP induction profile (in words)” value in series [4] was “profile similar to that of 45”. Also, on hCB2 receptor [5], the affinity, expressed as Ki, was 56 nM. Besides, on hCB1 receptor [6], affinity was put at a Ki of 150 nM. In addition, the plasma levels in [2] is under 30 ng/mL.
